# Test results: ChEMBL document CHEMBL3046894, “Synthesis and Herbicidal Activity of Pyrimidinyl Salicylic and Thiosalicylic Acids” (J Pestic Sci, 1996)
# The source made the active and inactive calls. No cut-off for these calls is given here.
# Experiments:
# Cyperus iria [1] = test: Pre-emergence herbicidal activity against Cyperus iria assessed as growth inhibition at 25 g a.i/10 a; type: functional, organism-based
# Chenopodium album [2] = test: Pre-emergence herbicidal activity against Chenopodium album assessed as growth inhibition at 25 g a.i/10 a; type: functional, organism-based
# [3] = (§1) Pre-emergence phytotoxicity against Gossypium hirsutum (cotton) assessed as mortality at 6.3 g a.i/10 a; type: organism-based; conditions: in vivo, 6.3 g a.i/10 a
# Persicaria nodosa [4] = test: Post-emergence herbicidal activity against Persicaria nodosa assessed as growth inhibition at 25 g a.i/10 a applied 11 days after germination as foliar spray; type: functional, organism-based
# Amaranthus retroflexus [5] = test: Pre-emergence herbicidal activity against Amaranthus retroflexus assessed as growth inhibition at 25 g a.i/10 a; type: functional, organism-based
# Zea mays [6] = test: Pre-emergence phytotoxicity against Zea mays (maize) assessed as mortality at 6.3 g a.i/10 a; type: organism-based; conditions: in vivo, other
# Digitaria sanguinalis [7] = test: Pre-emergence herbicidal activity against Digitaria sanguinalis (hairy crabgrass) assessed as growth inhibition at 25 g a.i/10 a; type: functional, organism-based
# Amaranthus retroflexus [8] = test: Post-emergence herbicidal activity against Amaranthus retroflexus assessed as growth inhibition at 25 g a.i/10 a applied 11 days after germination as foliar spray; type: functional, organism-based
# Chenopodium album [9] = test: Post-emergence herbicidal activity against Chenopodium album assessed as growth inhibition at 25 g a.i/10 a applied 11 days after germination as foliar spray; type: functional, organism-based
# Xanthium strumarium [10] = test: Pre-emergence herbicidal activity against Xanthium strumarium (cocklebur) assessed as mortality at 6.3 g a.i/10 a; type: functional
# Glycine max [11] = test: Post-emergence phytotoxicity against Glycine max (soybean) assessed as mortality at 1.6 g a.i/10 a applied 11 days after germination as foliar spray; type: organism-based; conditions: in vivo, other, 264 h
# Abutilon theophrasti [12] = test: Pre-emergence herbicidal activity against Abutilon theophrasti (velvetleaf) assessed as mortality at 1.6 g a.i/10 a; type: functional; conditions: Abutilon theophrasti, pre-emergence
# Glycine max [13] = test: Pre-emergence phytotoxicity against Glycine max (soybean) assessed as mortality at 6.3 g a.i/10 a; type: organism-based; conditions: in vivo, other
# Glycine max [14] = test: (§2) Pre-emergence phytotoxicity against Glycine max (soybean) assessed as mortality at 1.6 g a.i/10 a; type: organism-based; conditions: in vivo, other
# Echinochloa crus-galli [15] = test: Post-emergence herbicidal activity against Echinochloa crus-galli (barnyard grass) assessed as growth inhibition at 25 g a.i/10 a applied 11 days after germination as foliar spray; type: functional, organism-based
# Echinochloa crus-galli [16] = test: Pre-emergence herbicidal activity against Echinochloa crus-galli (barnyard grass) assessed as mortality at 1.6 g a.i/10 a; type: functional; conditions: Echinochloa crus-galli, pre-emergence
# [17] = (§3) Pre-emergence phytotoxicity against Zea mays (maize) assessed as mortality at 1.6 g a.i/10 a; type: organism-based; conditions: in vivo, 1.6 g a.i/10 a, read-out: mortality
# Xanthium strumarium [18] = test: Post-emergence herbicidal activity against Xanthium strumarium (cocklebur) assessed as mortality at 1.6 g a.i/10 a applied 11 days after germination as foliar spray; type: functional; conditions: 264 h
# Gossypium hirsutum [19] = test: (§4) Post-emergence phytotoxicity against Gossypium hirsutum (cotton) assessed as mortality at 1.6 g a.i/10 a applied 11 days after germination as foliar spray; type: organism-based; conditions: in vivo, other, 264 h
# Ipomoea lacunosa [20] = test: Post-emergence herbicidal activity against Ipomoea lacunosa assessed as mortality at 1.6 g a.i/10 a applied 11 days after germination as foliar spray; type: functional; conditions: 264 h
# Echinochloa crus-galli [21] = test: Pre-emergence herbicidal activity against Echinochloa crus-galli (barnyard grass) assessed as mortality at 6.3 g a.i/10 a; type: functional; conditions: Echinochloa crus-galli, pre-emergence
# Zea mays [22] = test: Post-emergence phytotoxicity against Zea mays (maize) assessed as mortality at 1.6 g a.i/10 a applied 11 days after germination as foliar spray; type: organism-based; conditions: in vivo, other, 264 h
# Gossypium hirsutum [23] = test: (§5) Post-emergence phytotoxicity against Gossypium hirsutum (cotton) assessed as mortality at 6.3 g a.i/10 a applied 11 days after germination as foliar spray; type: organism-based; conditions: in vivo, other, 264 h
# Cyperus iria [24] = test: Post-emergence herbicidal activity against Cyperus iria assessed as growth inhibition at 25 g a.i/10 a applied 11 days after germination as foliar spray; type: functional, organism-based
# Xanthium strumarium [25] = test: Pre-emergence herbicidal activity against Xanthium strumarium (cocklebur) assessed as mortality at 1.6 g a.i/10 a; type: functional
# Ipomoea lacunosa [26] = test: Pre-emergence herbicidal activity against Ipomoea lacunosa assessed as mortality at 6.3 g a.i/10 a; type: functional
# Persicaria nodosa [27] = test: Pre-emergence herbicidal activity against Persicaria nodosa assessed as growth inhibition at 25 g a.i/10 a; type: functional, organism-based
# Ipomoea lacunosa [28] = test: Pre-emergence herbicidal activity against Ipomoea lacunosa assessed as mortality at 1.6 g a.i/10 a; type: functional
# Zea mays [29] = test: Post-emergence phytotoxicity against Zea mays (maize) assessed as mortality at 6.3 g a.i/10 a applied 11 days after germination as foliar spray; type: organism-based; conditions: in vivo, other, 264 h
# Digitaria sanguinalis [30] = test: Post-emergence herbicidal activity against Digitaria sanguinalis (hairy crabgrass) assessed as growth inhibition at 25 g a.i/10 a applied 11 days after germination as foliar spray; type: functional, organism-based
# Echinochloa crus-galli [31] = test: Pre-emergence herbicidal activity against Echinochloa crus-galli (barnyard grass) assessed as growth inhibition at 25 g a.i/10 a; type: functional, organism-based
# Gossypium hirsutum [32] = test: Pre-emergence phytotoxicity against Gossypium hirsutum (cotton) assessed as mortality per 10 acre; type: organism-based; conditions: in vivo
# Ipomoea lacunosa [33] = test: Post-emergence herbicidal activity against Ipomoea lacunosa assessed as mortality per 10 acre; type: functional
# Ipomoea lacunosa [34] = test: Pre-emergence herbicidal activity against Ipomoea lacunosa assessed as mortality per 10 acre; type: functional
# Persicaria nodosa [35] = test: Pre-emergence herbicidal activity against Persicaria nodosa assessed as mortality per 10 acre; type: functional
# Glycine max [36] = test: Post-emergence phytotoxicity against Glycine max (soybean) assessed as mortality at 6.3 g a.i/10 a applied 11 days after germination as foliar spray; type: organism-based; conditions: in vivo, other, 264 h
# Amaranthus retroflexus [37] = test: Pre-emergence herbicidal activity against Amaranthus retroflexus assessed as mortality per 10 acre; type: functional
# [38] = as §2; type: organism-based; conditions: in vivo, 1.6 g a.i/10 a, read-out: Activity
# Xanthium strumarium [39] = test: Post-emergence herbicidal activity against Xanthium strumarium (cocklebur) assessed as mortality per 10 acre; type: functional
# Ipomoea lacunosa [40] = test: Post-emergence herbicidal activity against Ipomoea lacunosa assessed as mortality at 6.3 g a.i/10 a applied 11 days after germination as foliar spray; type: functional; conditions: 264 h
# Zea mays [41] = test: as §3; type: organism-based; conditions: in vivo, other
# Amaranthus retroflexus [42] = test: Post-emergence herbicidal activity against Amaranthus retroflexus assessed as mortality per 10 acre; type: functional
# Echinochloa crus-galli [43] = test: Post-emergence herbicidal activity against Echinochloa crus-galli (barnyard grass) assessed as mortality per 10 acre; type: functional
# Echinochloa crus-galli [44] = test: Pre-emergence herbicidal activity against Echinochloa crus-galli (barnyard grass) assessed as mortality per 10 acre; type: functional
# Echinochloa crus-galli [45] = test: Post-emergence herbicidal activity against Echinochloa crus-galli (barnyard grass) assessed as mortality at 1.6 g a.i/10 a applied 11 days after germination as foliar spray; type: functional; conditions: 264 h
# Gossypium hirsutum [46] = test: Pre-emergence phytotoxicity against Gossypium hirsutum (cotton) assessed as mortality at 1.6 g a.i/10 a; type: organism-based; conditions: in vivo, other
# Xanthium strumarium [47] = test: Pre-emergence herbicidal activity against Xanthium strumarium (cocklebur) assessed as mortality per 10 acre; type: functional
# Gossypium hirsutum [48] = test: Post-emergence phytotoxicity against Gossypium hirsutum (cotton) assessed as mortality per 10 acre; type: organism-based; conditions: in vivo
# Persicaria nodosa [49] = test: Post-emergence herbicidal activity against Persicaria nodosa assessed as mortality per 10 acre; type: functional
# Gossypium hirsutum [50] = test: as §1; type: organism-based; conditions: in vivo, other
# Abutilon theophrasti [51] = test: Post-emergence herbicidal activity against Abutilon theophrasti (velvetleaf) assessed as mortality at 6.3 g a.i/10 a applied 11 days after germination as foliar spray; type: functional; conditions: 264 h
# [52] = as §4; type: organism-based; conditions: in vivo, 1.6 g a.i/10 a
# [53] = as §5; type: organism-based; conditions: in vivo, 6.3 g a.i/10 a
# [54] = Xanthium strumarium, pre-emergence
# [55] = Ipomoea lacunosa, pre-emergence
smiles,measurement,setting,value
COc1cc(OC)nc(Oc2cccc([N+](=O)[O-])c2C(=O)O)n1,growth inhibition (GI),Cyperus iria [1],Active
same,growth inhibition (GI),Chenopodium album [2],Active
same,mortality,[3]; read-out: mortality,< 5%
same,growth inhibition (GI),Persicaria nodosa [4],Active
same,growth inhibition (GI),Amaranthus retroflexus [5],Active
same,Activity,Zea mays [6],Non-toxic
same,growth inhibition (GI),Digitaria sanguinalis [7],inactive
same,growth inhibition (GI),Amaranthus retroflexus [8],Active
same,growth inhibition (GI),Chenopodium album [9],Active
same,mortality at 63 g/ha,Xanthium strumarium [10]; [54],< 5%
same,Activity,Glycine max [11],Toxic
same,mortality at 16 g/ha,Abutilon theophrasti [12],< 5%
same,Activity,Glycine max [13],Non-toxic
same,Activity,Glycine max [14],Non-toxic
same,growth inhibition (GI),Echinochloa crus-galli [15],Active
same,mortality at 16 g/ha,Echinochloa crus-galli [16],< 5%
same,mortality,[17],< 5%
same,mortality at 16 g/ha,Xanthium strumarium [18],< 5%
same,Activity,Gossypium hirsutum [19],Non-toxic
same,mortality at 16 g/ha,Ipomoea lacunosa [20],< 5%
same,mortality at 63 g/ha,Echinochloa crus-galli [21],< 5%
same,Activity,Zea mays [22],Non-toxic
same,Activity,Gossypium hirsutum [23],Non-toxic
same,growth inhibition (GI),Cyperus iria [24],Active
same,mortality at 16 g/ha,Xanthium strumarium [25]; [54],< 5%
same,mortality at 63 g/ha,Ipomoea lacunosa [26]; [55],< 5%
same,growth inhibition (GI),Persicaria nodosa [27],Active
same,mortality at 16 g/ha,Ipomoea lacunosa [28]; [55],< 5%
same,Activity,Zea mays [29],Toxic
same,growth inhibition (GI),Digitaria sanguinalis [30],inactive
same,growth inhibition (GI),Echinochloa crus-galli [31],inactive
COc1cc(OC)nc(Sc2cccc(C)c2C(=O)O)n1,ED20,Gossypium hirsutum [32],100 gAi
same,mortality,[3]; read-out: Activity,< 50%
same,Activity,Zea mays [6],Toxic
same,Activity,Xanthium strumarium [10],<50%
same,Activity,Glycine max [11],Toxic
same,ED90,Ipomoea lacunosa [33],50 gAi
same,ED90,Ipomoea lacunosa [34],50 gAi
same,ED90,Persicaria nodosa [35],Active
same,Activity,Glycine max [36],Toxic
same,ED90,Amaranthus retroflexus [37],Active
same,Activity,Glycine max [13],Non-toxic
same,mortality,[38],< 50%
same,ED90,Xanthium strumarium [39],25 gAi
same,mortality at 63 g/ha,Ipomoea lacunosa [40],< 5%
same,Activity,Zea mays [41],Toxic
same,Activity,Gossypium hirsutum [19],Non-toxic
same,ED90,Amaranthus retroflexus [42],Active
same,ED90,Echinochloa crus-galli [43],100 gAi
same,ED90,Echinochloa crus-galli [44],100 gAi
same,mortality at 16 g/ha,Ipomoea lacunosa [20],< 5%
same,mortality at 16 g/ha,Echinochloa crus-galli [45],< 5%
same,Activity,Zea mays [22],Toxic
same,Activity,Gossypium hirsutum [23],Non-toxic
same,Activity,Gossypium hirsutum [46],< 50%
same,Activity,Xanthium strumarium [25],<50%
same,ED90,Xanthium strumarium [47],25 gAi
same,Activity,Ipomoea lacunosa [26],<50%
same,Activity,Ipomoea lacunosa [28],<50%
same,ED20,Gossypium hirsutum [48],100 gAi
same,Activity,Zea mays [29],Toxic
same,ED90,Persicaria nodosa [49],Active
COc1cc(OC)nc(Sc2cccc(Br)c2C(=O)O)n1,ED20,Gossypium hirsutum [32],50 gAi
same,Activity,Gossypium hirsutum [50],Non-toxic
same,mortality at 63 g/ha,Abutilon theophrasti [51],> 90%
same,Activity,Zea mays [6],Toxic
same,Activity,Glycine max [11],Toxic
same,ED90,Ipomoea lacunosa [33],Active
same,ED90,Ipomoea lacunosa [34],25 gAi
same,ED90,Persicaria nodosa [35],inactive
same,Activity,Glycine max [36],Toxic
same,ED90,Amaranthus retroflexus [37],1.5 gAi
same,Activity,Glycine max [13],Toxic
same,Activity,Glycine max [14],Toxic
same,ED90,Xanthium strumarium [39],Active
same,Activity,Zea mays [41],Toxic
same,mortality at 264 h,[52],< 5%
same,ED90,Amaranthus retroflexus [42],1.5 gAi
same,ED90,Echinochloa crus-galli [43],25 gAi
same,ED90,Echinochloa crus-galli [44],25 gAi
same,Activity,Zea mays [22],Toxic
same,mortality at 264 h,[53],< 5%
same,Activity,Gossypium hirsutum [46],< 50%
same,ED90,Xanthium strumarium [47],25 gAi
same,ED20,Gossypium hirsutum [48],50 gAi
same,ED90,Persicaria nodosa [49],1.5 gAi
